Data as given in patent US20040029843A1, “Rapidly disintegrating formulations for treating or preventing mucositis” (OraPharma, Inc., priority 2002, published 2004).
Where a name gives a salt, the structure may show the parent alone.

System: mucositis induced by acute radiation exposure of the cheek pouch
Test: Hamster cheek pouch model of radiation-induced oral mucositis, clinical scoring 0-5
Format: in vivo, Hamsters
Conditions: 0.1 ml of 0.1 mg/ml aqueous solution topically three times a day for 22 days; for reduction in the number of animal days with scores of 3 or more relative to the control group: 35 Gy on day 0; for mucositis scores versus placebo control group: 35 Gy on day 0, visual score 0-5
Procedure: Hamsters were randomly assigned to treatment groups with eight (8) animals per group. Each group was treated either with a drug solution or a control, water.
Animals were dosed three times a day for 22 days. The first dose was applied on day -1. Either a solution of the drug or water alone was applied in a volume of 0.1 ml three times per day.
Mucositis was induced by acute radiation exposure of the check pouch. A single dose of radiation (35 Gy/dose) was administered to all animals on Day 0. Prior to irradiation, animals were anesthetized with an intraperiotoneal injection of sodium pentobarbital (80 mg/kg) and the left buccal pouch was everted, fixed and isolated using a lead shield.
Beginning on day 6 and continuing every other day up to day 28, the cheek pouch was photographed. On days that photographs were taken, prior to the first dosing of the day, the animals were anesthetized using an inhalation anesthetic and the left cheek pouch of each animal was rinsed vigorously with sterile water to remove residual food debris or foreign contamination and blotted dry with a gauze sponge. The appearance of the cheek pouch was scored visually by comparison to a validated photographic scale, ranging from 0 for normal to 5 for severe ulceration (clinical scoring). In descriptive terms, this scale is defined as follows: […]
0 Pouch completely healthy. No erythema or vasodilatation
1 Light to […] erythema and vasodilatation. No erosion of mucosa
2 Severe erythema and vasodilatation. Erosion of superficial aspects of mucosa leaving denuded areas. Decreased stippling of mucosa
3 Formation of off-white ulcers in one or more places. Ulcers may have a yellow/gray color due to pseudomembrane formation. Cumulative size of ulcers up to ¼ of the pouch surface. Severe erythema and vasodilatation
4 Cumulative size of ulcers ¼ to ½ of the pouch surface. Loss of pliability. Severe erythema and vasodilatation
5 Virtually all of pouch is ulcerated. Loss of pliability (pouch can only partially be extracted from mouth).
A score of 1-2 represents mild stage of the disease, whereas a score of 3-5 indicates moderate to severe mucositis.

Compound	reduction in the number of animal days with scores of 3 or more relative to the control group	mucositis scores versus placebo control group
CN(C)[C@@H]1C(O)=C(C(N)=O)C(=O)[C@@]2(O)C(O)=C3C(=O)c4c(O)cccc4[C@@](C)(O)[C@H]3C[C@@H]12 [tetracycline hydrochloride]	more than 75%	Significantly lower scores
meclocycline sulfosalicylate	more than 75%	Significantly lower scores
